Experimental data published in US5112834A, “Imidazole protectorant for the stomach and intestine” (BYK Gulden Lomberg Chemische Fabrik GmbH, priority 1987, dated 1992).
Where two headings read alike, the source gives them in different places.

System: modified Shay rat
Assay: Antiulcerogenic and secretion-inhibiting action on the modified Shay rat (pylorus ligature plus oral acetylsalicylic acid)
Type: in vivo
Conditions: for Inhibition of acid secretion: Reduction in HCl secretion / Protective action on stomach: Reduction in lesion index: 4 hours; for ED50: Rattus norvegicus, 4 h, i.d.
Description: Ulcers are provoked in rats which have fasted for 24 hours (female, 180-200 g, 4 animals per cage on high grid) by pylorus ligature (under diethyl ether anaesthesia) and oral administration of 100 mg/10 ml/kg acetylsalicylic acid. The substances to be tested are administered intraduodenally (2,5 ml/kg) immediately following t[e pylorus ligature. The wound is closed by means of Michel clamps. 4 hours later, the animals are sacrificed under ether anaesthesia by atlas dislocation and the stomach is resected. The stomach is opened along the greater curvature and clamped on a cork sheet after first determining the amount of secreted gastric juice (volume) and subsequently its HCl content (titration with sodium hydroxide solution). Using a stereomicroscope at 10×magnification, the number and size (=diameter) of ulcers present are determined. The product of severity (according to the scale of points below) and number of ulcers serves as an individual lesion index. |Scale of points: | No ulcers 0 | Ulcer diameter | 0.1-1.4 mm | 1 | 1.5-2.4 mm | 2 | 2.5-3.4 mm | 3 | 3.5-4.4 mm | 4 | 4.5-5.4 mm | 5 | >5.5 mm 6 The reduction in the mean lesion index of each treated group compared with the control group (=100%) serves as a measure of the antiulcerogenic effect. The ED50 designates the dose which reduces the mean lesion index or the HCl secretion by 50% compared with the control.

[1] = 0.3 μmol/kg i.d. (intraduodenal)
[2] = 1.0 μmol/kg i.d. (intraduodenal)
[3] = 3.0 μmol/kg i.d. (intraduodenal)
[4] = 10.0 μmol/kg i.d. (intraduodenal)
[5] = 30.0 μmol/kg i.d. (intraduodenal)
[6] = dose (interpolated) which reduces the HCl secretion by 50% compared with control group, read-out: Inhibition of acid secretion: Approx. ED50
[7] = dose (interpolated) which reduces the lesion index by 50% compared with control group, read-out: Protective action on stomach: Approx. ED50
[8] = 0.6 μmol/kg i.d. (intraduodenal)
[9] = 1.5 μmol/kg i.d. (intraduodenal)
[10] = 2.0 μmol/kg i.d. (intraduodenal)
[11] = 6.0 μmol/kg i.d. (intraduodenal)
[12] = 0.1 μmol/kg i.d. (intraduodenal)

| SMILES | Inhibition of acid secretion: Reduction in HCl secretion [1] [%] | Protective action on stomach: Reduction in lesion index [1] [%] | Inhibition of acid secretion: Reduction in HCl secretion [2] [%] | Protective action on stomach: Reduction in lesion index [2] [%] | Inhibition of acid secretion: Reduction in HCl secretion [3] [%] | Protective action on stomach: Reduction in lesion index [3] [%] | Inhibition of acid secretion: Reduction in HCl secretion [4] [%] | Protective action on stomach: Reduction in lesion index [4] [%] | Inhibition of acid secretion: Reduction in HCl secretion [5] [%] | Protective action on stomach: Reduction in lesion index [5] [%] | ED50 [6] [µmol/kg] | ED50 [7] [µmol/kg] | also measured |
| --- | --- | --- | --- | --- | --- | --- | --- | --- | --- | --- | --- | --- | --- |
| Cc1nc2c(O[C@@H]3c4ccccc4C[C@H]3O)cccn2c1C (relative stereo) [Example 2] | -20 | 25 | 23 | 47 | 52 | 81 | 47 | 94 | 95 | 100 | ~4.27 | ~0.84 | – |
| Cc1nc2c(O[C@@H]3c4ccccc4C[C@H]3O)cccn2c1CC#N (relative stereo) [Example 4, 3-cyanomethyl-8-(2-(trans)-hydroxy-2,3-dihydro-1-indenyloxy)-2-methyl-imidazo[1,2-a]pyridine] | -26 | 18 | 22 | 35 | 63 | 93 | – | – | 99 | 100 | ~1.95 | ~1.04 | Inhibition of acid secretion: Reduction in HCl secretion [8]: 12%; Protective action on stomach: Reduction in lesion index [8]: 33%; Inhibition of acid secretion: Reduction in HCl secretion [9]: 50%; Protective action on stomach: Reduction in lesion index [9]: 94%; Inhibition of acid secretion: Reduction in HCl secretion [10]: 51%; Protective action on stomach: Reduction in lesion index [10]: 98%; Inhibition of acid secretion: Reduction in HCl secretion [11]: 73%; Protective action on stomach: Reduction in lesion index [11]: 100% |
| Cc1nc2c(O[C@@H]3c4ccccc4C[C@H]3O)cccn2c1CO (relative stereo) [Example 8, 3-hydroxymethyl-8-(2-(trans)-hydroxy-2,3-dihydro-1-indenyloxy)-2-methyl-imidazo[1,2-a]pyridine] | 19 | 43 | 25 | 47 | 20 | 74 | 35 | 94 | 98 | 100 | ~12.9 | ~0.69 | Inhibition of acid secretion: Reduction in HCl secretion [12]: 10%; Protective action on stomach: Reduction in lesion index [12]: 13% |
| Cc1nc2c(O[C@@H]3c4ccccc4C[C@H]3O)cccn2c1N.Cl (relative stereo) [Example 11, 3-amino-8-(2-(trans)-hydroxy-2,3-dihydro-1-indenyloxy)-2-methyl-imidazo[1,2-a]pyridine-hydrochloride] | – | – | 16 | 27 | 32 | 71 | 67 | 100 | – | – | ~6.02 | ~1.69 | – |
| Cc1nc2c(O[C@@H]3c4ccc(F)cc4C[C@H]3O)cccn2c1CO (relative stereo) [Example 30, 8-(5-fluoro-2-(trans)-hydroxy-2,3-dihydro-1-indenyloxy)-3-hydroxymethyl-2-methyl-imidazo[1,2-a]pyridine] | – | – | – | – | 41 | 86 | – | – | – | – | – | – | – |
